Test results reported in ChEMBL document CHEMBL1201862, “PubChem BioAssay data set” (2004).
Calls of active or inactive are those of the source.

Tests used:
[1] = biological target: T1, Replicative DNA helicase DnaB (Mycobacterium tuberculosis, UniProt P9WMR3); experiment: DnaB intein splicing inhibitors, dose response, biochemical, cell-free fluorescence (AID 449749); assay type: functional
T1 sequence (P9WMR3 whole entry): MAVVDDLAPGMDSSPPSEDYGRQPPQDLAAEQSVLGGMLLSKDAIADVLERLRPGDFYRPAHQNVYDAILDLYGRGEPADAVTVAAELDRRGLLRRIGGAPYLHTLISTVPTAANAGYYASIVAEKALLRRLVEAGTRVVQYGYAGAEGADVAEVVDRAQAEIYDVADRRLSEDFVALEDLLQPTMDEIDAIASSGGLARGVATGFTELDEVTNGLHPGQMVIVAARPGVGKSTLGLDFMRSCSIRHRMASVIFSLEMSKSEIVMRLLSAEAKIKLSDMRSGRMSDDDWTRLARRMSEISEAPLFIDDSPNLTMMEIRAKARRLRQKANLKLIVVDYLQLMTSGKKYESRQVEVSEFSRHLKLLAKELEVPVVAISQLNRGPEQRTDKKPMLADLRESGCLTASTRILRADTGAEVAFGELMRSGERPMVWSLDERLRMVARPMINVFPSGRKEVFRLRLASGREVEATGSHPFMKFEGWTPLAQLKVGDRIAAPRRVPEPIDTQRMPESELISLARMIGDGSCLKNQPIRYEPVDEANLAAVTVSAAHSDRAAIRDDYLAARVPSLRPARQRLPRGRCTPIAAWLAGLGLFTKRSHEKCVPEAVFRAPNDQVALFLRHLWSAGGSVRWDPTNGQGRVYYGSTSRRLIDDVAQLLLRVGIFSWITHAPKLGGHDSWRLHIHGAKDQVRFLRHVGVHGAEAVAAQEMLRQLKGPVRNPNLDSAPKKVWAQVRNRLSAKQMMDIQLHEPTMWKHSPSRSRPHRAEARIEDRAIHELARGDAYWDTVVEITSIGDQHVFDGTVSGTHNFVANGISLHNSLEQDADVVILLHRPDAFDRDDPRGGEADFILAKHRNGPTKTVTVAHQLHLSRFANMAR

[2] = biological target: T2, Calpain-2 catalytic subunit (Sus scrofa, UniProt P43367); experiment: pig calpain II inhibitor potency, dose response, biochemical, fluorogenic peptide substrate (AID 1420); assay type: functional
T2 sequence (P43367 whole entry): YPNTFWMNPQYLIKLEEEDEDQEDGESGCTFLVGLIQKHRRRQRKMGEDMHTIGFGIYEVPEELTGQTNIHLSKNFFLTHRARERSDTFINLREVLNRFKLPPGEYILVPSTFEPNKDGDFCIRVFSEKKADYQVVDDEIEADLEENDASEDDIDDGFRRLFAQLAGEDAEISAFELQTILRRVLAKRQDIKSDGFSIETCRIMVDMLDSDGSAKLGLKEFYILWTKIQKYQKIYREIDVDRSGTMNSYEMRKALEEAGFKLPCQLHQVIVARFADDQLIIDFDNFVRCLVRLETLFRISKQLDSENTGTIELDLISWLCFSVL

[3] = biological target: T3, Protein RecA (Mycobacterium tuberculosis, UniProt P9WHJ3); experiment: Fluorescence Cell-Free Homogeneous Dose Retest to Identify Inhibitors of RecA-Intein Splicing Activity. [Related pubchem assays (depositor defined):AID2097, AID2223, AID489010, AID492950]; assay type: functional
T3 sequence (P9WHJ3 whole entry): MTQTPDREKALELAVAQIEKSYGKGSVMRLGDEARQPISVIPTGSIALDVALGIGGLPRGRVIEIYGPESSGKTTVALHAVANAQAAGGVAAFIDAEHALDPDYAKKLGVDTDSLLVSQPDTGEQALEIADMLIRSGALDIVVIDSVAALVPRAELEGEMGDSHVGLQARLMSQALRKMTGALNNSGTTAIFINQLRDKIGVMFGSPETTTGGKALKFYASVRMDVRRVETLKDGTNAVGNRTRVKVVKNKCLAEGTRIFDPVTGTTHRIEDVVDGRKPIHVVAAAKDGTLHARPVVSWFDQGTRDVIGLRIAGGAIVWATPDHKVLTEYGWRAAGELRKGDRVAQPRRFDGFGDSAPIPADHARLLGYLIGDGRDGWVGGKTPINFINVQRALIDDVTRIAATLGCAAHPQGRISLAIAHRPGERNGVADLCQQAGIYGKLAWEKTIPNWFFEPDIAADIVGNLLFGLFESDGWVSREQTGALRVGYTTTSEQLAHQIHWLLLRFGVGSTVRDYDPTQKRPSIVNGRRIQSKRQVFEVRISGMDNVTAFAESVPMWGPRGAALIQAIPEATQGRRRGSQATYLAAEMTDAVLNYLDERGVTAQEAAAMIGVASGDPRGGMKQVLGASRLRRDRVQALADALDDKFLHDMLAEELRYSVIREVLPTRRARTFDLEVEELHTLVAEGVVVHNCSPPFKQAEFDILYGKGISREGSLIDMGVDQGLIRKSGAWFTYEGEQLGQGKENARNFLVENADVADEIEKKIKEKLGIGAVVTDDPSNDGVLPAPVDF

[4] = biological target: Aurora kinase B (Homo sapiens, UniProt Q96GD4); assay type: functional
Chain of Aurora kinase B (Q96GD4 whole entry): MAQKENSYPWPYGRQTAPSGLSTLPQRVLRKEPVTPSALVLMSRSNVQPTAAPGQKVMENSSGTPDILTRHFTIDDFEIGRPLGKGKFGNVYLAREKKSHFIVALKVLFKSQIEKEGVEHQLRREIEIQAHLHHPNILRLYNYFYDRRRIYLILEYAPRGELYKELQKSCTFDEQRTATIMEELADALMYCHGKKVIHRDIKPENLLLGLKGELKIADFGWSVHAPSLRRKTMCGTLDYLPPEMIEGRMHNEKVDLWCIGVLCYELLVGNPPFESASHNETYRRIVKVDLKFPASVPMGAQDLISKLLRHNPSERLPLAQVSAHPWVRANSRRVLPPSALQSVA

[5] = biological target: Cyclin-dependent kinase 5 (Homo sapiens, UniProt Q00535); assay type: functional;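 note: CDK5 measured as one member of a kinase profiling panel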
Chain of Cyclin-dependent kinase 5 (Q00535 whole entry): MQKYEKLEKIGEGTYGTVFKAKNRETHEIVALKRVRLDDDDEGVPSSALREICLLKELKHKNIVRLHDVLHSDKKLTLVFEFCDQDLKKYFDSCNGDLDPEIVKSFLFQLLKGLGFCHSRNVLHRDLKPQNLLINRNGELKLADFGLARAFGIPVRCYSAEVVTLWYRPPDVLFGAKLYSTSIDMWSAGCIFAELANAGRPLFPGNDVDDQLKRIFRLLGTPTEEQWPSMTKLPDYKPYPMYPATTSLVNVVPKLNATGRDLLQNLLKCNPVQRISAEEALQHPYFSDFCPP

[6] = biological target: Serine/threonine-protein kinase TBK1 (Homo sapiens, UniProt Q9UHD2); experiment: Navigating the Kinome. Panel member name: TBK1; assay type: functional
Chain of Serine/threonine-protein kinase TBK1 (Q9UHD2 whole entry): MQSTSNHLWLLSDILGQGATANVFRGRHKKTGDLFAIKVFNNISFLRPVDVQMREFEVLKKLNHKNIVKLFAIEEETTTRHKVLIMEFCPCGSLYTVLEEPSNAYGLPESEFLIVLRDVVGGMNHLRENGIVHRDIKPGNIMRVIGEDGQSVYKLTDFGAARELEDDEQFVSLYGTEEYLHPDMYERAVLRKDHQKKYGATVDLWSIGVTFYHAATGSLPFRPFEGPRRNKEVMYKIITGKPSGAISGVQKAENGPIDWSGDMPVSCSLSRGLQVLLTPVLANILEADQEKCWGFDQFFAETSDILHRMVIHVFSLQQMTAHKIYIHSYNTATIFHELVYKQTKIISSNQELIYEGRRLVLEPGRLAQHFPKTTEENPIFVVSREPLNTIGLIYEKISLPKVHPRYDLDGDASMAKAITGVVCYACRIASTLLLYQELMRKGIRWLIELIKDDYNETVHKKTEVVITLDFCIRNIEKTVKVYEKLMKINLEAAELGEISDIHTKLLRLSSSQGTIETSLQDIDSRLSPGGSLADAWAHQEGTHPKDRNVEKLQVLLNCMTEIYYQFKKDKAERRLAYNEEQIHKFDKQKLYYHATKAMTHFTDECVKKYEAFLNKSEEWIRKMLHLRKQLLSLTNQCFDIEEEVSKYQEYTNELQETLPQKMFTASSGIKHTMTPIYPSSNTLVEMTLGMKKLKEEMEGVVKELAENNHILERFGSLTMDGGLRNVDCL

[7] = biological target: Calcium/calmodulin-dependent protein kinase type II subunit alpha (Homo sapiens, UniProt Q9UQM7); experiment: Navigating the Kinome. Panel member name: CAMK2A; assay type: functional
Chain of Calcium/calmodulin-dependent protein kinase type II subunit alpha (Q9UQM7 whole entry): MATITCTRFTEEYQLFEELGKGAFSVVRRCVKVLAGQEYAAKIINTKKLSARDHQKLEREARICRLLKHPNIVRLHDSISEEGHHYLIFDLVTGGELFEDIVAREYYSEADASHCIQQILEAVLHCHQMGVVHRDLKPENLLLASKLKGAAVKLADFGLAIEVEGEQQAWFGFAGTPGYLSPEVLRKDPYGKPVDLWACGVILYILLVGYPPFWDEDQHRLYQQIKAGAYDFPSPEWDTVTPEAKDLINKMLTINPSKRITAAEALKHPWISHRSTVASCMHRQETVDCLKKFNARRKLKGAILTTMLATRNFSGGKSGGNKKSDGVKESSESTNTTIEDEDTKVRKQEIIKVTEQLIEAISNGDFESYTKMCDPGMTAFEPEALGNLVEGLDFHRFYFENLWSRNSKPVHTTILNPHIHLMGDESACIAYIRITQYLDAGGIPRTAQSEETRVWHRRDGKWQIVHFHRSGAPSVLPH

[8] = biological target: Activated CDC42 kinase 1 (Homo sapiens, UniProt Q07912); experiment: Navigating the Kinome. Panel member name: ACK1; assay type: functional
Chain of Activated CDC42 kinase 1 (Q07912 whole entry): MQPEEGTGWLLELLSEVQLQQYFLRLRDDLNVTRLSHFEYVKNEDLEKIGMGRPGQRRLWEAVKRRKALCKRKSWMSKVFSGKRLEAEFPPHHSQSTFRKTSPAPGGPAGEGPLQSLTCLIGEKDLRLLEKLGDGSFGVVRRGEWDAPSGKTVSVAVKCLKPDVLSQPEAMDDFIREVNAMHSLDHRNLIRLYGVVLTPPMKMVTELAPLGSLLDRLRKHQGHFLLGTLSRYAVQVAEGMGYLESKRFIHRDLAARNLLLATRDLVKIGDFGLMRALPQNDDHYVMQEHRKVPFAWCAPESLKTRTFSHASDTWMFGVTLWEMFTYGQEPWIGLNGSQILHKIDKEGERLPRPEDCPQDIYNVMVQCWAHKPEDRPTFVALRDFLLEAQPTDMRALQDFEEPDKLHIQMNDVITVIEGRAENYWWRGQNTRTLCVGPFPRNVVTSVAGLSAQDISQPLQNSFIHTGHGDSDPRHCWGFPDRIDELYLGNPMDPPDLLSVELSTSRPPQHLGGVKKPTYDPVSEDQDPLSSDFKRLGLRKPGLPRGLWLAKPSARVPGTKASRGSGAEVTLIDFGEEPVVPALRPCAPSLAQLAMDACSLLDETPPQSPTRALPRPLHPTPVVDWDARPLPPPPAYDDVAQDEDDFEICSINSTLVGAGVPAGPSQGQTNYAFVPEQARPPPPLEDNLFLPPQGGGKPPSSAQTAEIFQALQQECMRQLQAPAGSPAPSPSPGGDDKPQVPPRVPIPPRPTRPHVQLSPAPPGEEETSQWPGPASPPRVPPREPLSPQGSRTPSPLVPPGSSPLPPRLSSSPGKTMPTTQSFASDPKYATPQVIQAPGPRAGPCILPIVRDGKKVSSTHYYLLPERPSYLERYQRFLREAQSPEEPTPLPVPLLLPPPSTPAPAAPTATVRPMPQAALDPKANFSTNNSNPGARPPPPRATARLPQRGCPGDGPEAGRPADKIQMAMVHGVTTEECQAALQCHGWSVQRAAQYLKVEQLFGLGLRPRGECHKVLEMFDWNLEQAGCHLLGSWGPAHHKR

[9] = biological target: Macrophage-stimulating protein receptor (Homo sapiens, UniProt Q04912); experiment: Navigating the Kinome. Panel member name: MST1R; assay type: functional
[10] = biological target: Vascular endothelial growth factor receptor 1 (Homo sapiens, UniProt P17948); assay type: functional;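 note: measured within a kinome-wide profiling panel, FLT1 as the panel member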
[11] = biological target: Serine/threonine-protein kinase pim-1 (Homo sapiens, UniProt P11309); assay type: functional
Chain of Serine/threonine-protein kinase pim-1 (P11309 whole entry): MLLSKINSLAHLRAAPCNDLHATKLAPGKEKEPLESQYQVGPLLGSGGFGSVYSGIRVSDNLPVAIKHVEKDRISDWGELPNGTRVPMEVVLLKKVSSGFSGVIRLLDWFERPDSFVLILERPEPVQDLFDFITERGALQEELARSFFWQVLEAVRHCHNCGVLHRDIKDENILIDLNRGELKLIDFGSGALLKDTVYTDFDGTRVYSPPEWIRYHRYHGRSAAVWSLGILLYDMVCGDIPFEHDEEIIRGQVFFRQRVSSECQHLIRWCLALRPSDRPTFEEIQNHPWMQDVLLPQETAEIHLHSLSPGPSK

[12] = biological target: Serine/threonine-protein kinase D3 (Homo sapiens, UniProt O94806); assay type: functional;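 note: determined within a kinase panel screen, with PRKCN as the panel member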
Chain of Serine/threonine-protein kinase D3 (O94806 whole entry): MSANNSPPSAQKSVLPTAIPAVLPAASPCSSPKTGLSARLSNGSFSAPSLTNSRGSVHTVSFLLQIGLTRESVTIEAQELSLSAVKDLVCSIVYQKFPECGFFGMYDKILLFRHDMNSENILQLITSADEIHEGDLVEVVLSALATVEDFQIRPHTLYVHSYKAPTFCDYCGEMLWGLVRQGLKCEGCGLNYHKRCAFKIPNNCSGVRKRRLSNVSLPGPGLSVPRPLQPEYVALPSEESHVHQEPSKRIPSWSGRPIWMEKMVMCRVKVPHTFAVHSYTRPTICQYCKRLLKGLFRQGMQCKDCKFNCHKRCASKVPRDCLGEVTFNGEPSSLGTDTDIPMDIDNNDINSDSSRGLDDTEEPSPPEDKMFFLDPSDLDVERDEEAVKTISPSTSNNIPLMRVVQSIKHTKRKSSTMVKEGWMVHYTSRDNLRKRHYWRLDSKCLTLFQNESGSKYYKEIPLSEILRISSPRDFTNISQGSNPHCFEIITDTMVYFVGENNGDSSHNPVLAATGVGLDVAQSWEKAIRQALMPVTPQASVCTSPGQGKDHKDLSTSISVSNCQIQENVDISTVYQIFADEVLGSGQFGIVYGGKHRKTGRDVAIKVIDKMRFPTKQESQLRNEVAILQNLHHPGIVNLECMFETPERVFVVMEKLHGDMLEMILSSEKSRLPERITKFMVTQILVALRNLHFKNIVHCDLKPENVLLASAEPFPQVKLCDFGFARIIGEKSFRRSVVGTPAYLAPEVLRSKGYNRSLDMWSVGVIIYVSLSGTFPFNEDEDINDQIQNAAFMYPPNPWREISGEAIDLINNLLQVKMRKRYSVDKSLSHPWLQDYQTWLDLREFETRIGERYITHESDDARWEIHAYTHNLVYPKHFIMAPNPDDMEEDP

[13] = biological target: Inhibitor of nuclear factor kappa-B kinase subunit epsilon (Homo sapiens, UniProt Q14164); experiment: Navigating the Kinome. Panel member name: IKBKE; assay type: functional
Chain of Inhibitor of nuclear factor kappa-B kinase subunit epsilon (Q14164 whole entry): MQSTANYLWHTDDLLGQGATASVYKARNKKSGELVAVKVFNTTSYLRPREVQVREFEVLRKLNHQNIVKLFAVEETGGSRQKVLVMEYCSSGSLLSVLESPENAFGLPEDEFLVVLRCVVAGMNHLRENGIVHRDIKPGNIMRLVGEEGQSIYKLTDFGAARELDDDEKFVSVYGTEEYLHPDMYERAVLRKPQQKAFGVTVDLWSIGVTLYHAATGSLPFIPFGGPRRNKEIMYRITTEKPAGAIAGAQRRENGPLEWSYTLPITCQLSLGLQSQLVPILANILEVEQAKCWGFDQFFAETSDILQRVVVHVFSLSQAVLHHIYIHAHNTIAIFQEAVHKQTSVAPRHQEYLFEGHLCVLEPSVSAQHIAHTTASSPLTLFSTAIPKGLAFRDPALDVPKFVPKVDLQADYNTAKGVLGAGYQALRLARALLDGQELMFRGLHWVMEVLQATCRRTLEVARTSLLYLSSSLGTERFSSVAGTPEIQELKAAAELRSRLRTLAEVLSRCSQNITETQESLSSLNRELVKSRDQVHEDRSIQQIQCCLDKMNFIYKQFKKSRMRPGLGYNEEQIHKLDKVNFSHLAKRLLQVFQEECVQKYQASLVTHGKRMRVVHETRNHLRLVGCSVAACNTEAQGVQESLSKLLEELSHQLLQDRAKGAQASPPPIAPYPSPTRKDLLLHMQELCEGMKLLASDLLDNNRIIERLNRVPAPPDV

[14] = biological target: Dual specificity tyrosine-phosphorylation-regulated kinase 1B (Homo sapiens, UniProt Q9Y463); experiment: Navigating the Kinome. Panel member name: DYRK1B; assay type: functional
[15] = system: Streptococcus; experiment: Group A Streptococcus viability loss, dose response, counter-screen for streptokinase expression inhibitor project, luminescence, BacTiterGlo (AID 1915); assay type: functional, organism-based;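 note: potency for reduction of bacterial viability or growth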

Cc1ccc(NC(=O)COc2cccc(/C=C3\SC(=S)N(CCC(=O)O)C3=O)c2)cc1Cl
AC50 [1]: 6.13 µM (active) | IC50 [2]: > 50 µM (not active) | EC50 [3]: 19.1 µM (active)

COc1cccc(C(C)NC(=O)c2ccc(-c3ccncc3)s2)c1 (stereo not given)
Ki [4]: 0.398 µM (active) | Ki [5]: > 3.16 µM (inactive) | Ki [6]: > 3.16 µM (inactive) | Ki [7]: > 3.98 µM (inactive) | Ki [8]: > 3.98 µM (inactive) | Ki [9]: > 3.98 µM (inactive) | Ki [10]: > 3.98 µM (inactive) | Ki [11]: > 6.31 µM (inactive) | Ki [12]: > 3.98 µM (inactive) | Ki [13]: > 3.16 µM (inactive) | Ki [14]: > 2.51 µM (inactive)

O=Nc1c(-c2c(O)[nH]c3cc(Br)ccc23)[nH]c2ccccc12
EC50 [15]: 3.48 µM (active)
